Assay results from patent publication US7371411B2, “Methods for production of the oxidized glutathione composite with CIS-diamminedichloroplatinum and pharmaceutical compositions based thereof regulating metabolism, proliferation, differentiation and apoptotic mechanisms for normal and transformed cells” (Novelos Therapeutics, Inc., priority 1998, dated 2008).

How the values were obtained:
[1] = system: chronic viral hepatitis B (HBV); assay: Patients with chronic viral hepatitis B; format: in vivo, human
Protocol: Previous treatment: from 17 Sep. 1997 the patient was administered with acyclovir during 21 days.

[2] = system: mice irradiated in a dose of 1 Gy; settings: 5 mg/kg intraperitoneally daily for seven days, 8th day
Source text: The study was designed to evaluate efficacy of seven-day daily administration of the test articles (with the dosing started two hours post-exposure) on the capability of the splenocytes from mice exposed to radiation to produce interleukin-1 (IL-1 α,b); interleukin-2 (IL-2); interleukin-3 (IL-3); interleukin-4 (IL-4); interleukin-6 (IL-6), interleukin-8 (IL-8); interleukin-10 (IL-10); interleukin-12 (IL-12); tumor necrosis factor-α, g (TNF-α, g), interferon-α, g (IFN-α,) and G-CSF, M-CSF, GM-CSF in vitro. In addition, the blood leukocyte and lymphocyte counts and the spleen and bone marrow cellularity (karyocyte count), as we well as splenic and medullary colony-stimulating capacity, were determined at the 8th day post-exposure.
Male CBA mice (18 to 20 g body weight) were irradiated with single dose of 180 kV X-rays filtered with 0.5 mm Cu (at 15 mA, distance—70 cm, duration two min. and 28 sec.). The total absorbed dose comprised approximately 1 Gy. […]
Additionally, hemopoietic colony-formation ability of spleen and bone marrow cells was assessed by the method of colony-forming unit (CFU) direct count in the spleens of irradiated singenic CBA mice receiving intravenously spleen or bone marrow cells obtained from animals of control or test groups.

[3] = system: glutathione reductase, glutathione-peroxidase, glutathione-S-transferase, γ-glutamyl-transpeptidase; settings: intravenous, 2 mg/kg
Protocol: In addition, the activity variation of the enzymes participating in GSSG metabolism was evaluated (glutathione reductase, glutathione-peroxidase, glutathione-S-transferase,γ-glutamyl-transpeptidase).
Activity of the enzymes participating in the GSSG metabolism (glutathione reductase: EC. 1.6.4.2; glutathione-peroxidase: EC. 1.11.1.9; glutathione-S-transferase: EC.2.5.1.18; g-glutamyl-transpeptidase: EC.2.3.2.2) were determined by the standard reagent kits produced by Boehringer Mannheim GmbH.

[4] = system: normal human lymphocytes; assay: Growth and apoptotic DNA degradation, normal human lymphocytes; settings: 100 mg/mL, 24, 48 hours
Protocol: Venous blood of healthy volunteers was collected into heparinized test-tubes, which had been tested for endotoxin. A mononuclear fraction of blood leukocytes was obtained by centrifugation in ficoll-metrizoat gradient (Histopaque, Sigma). Cell concentration was adjusted to 2×10^6 cells per 1 ml of cell culture medium (RPMI 1640), containing 20 mM HEPES, 2 mM glutamine, 50 mg/mL gentamicin and 10% fetal calf serum. Cell viability was estimated by the Trypan blue exclusion method, then the cell suspension was placed into wells of 24- and 96-well microliter plates—250,000 cells per well.
(§1) The effect testing for the testing articles was performed 24, 48 hours after addition into the culture.
The analysis procedure involved the following: after 24-48 hour incubation there were calculated the total cell count and the dead cell count by the Trypan blue exclusion method; afterwards the cell suspension was centrifuged (at 12.000 g, in Eppendorf test-tubes during 10 min). The cell pellet was frozen and kept at −70° C. before the DNA separation. The DNA separation was conducted by Kirbi-Georgiyev phenol method. […] Then it was diluted in 10 mL of the A buffer; the DNA amount was determined by Dishe method and electrophoresis was performed in 2% agarose gel (agarose with NA grade made by “Pharmacia LKB, Biotechnology Inc” (Austria) was used). […]

[5] = system: HL-60 myeloid line cells; assay: Growth and apoptotic DNA degradation, HL-60 cells; settings: 100 mg/mL
Protocol: The HL-60 myeloid line cells were grown in RPMI-1640 medium with addition of 10% fetal calf serum. Cultivation was carried out in closed flasks, the medium volume was 12 mL, it was replaced every four days.
as §1
The analysis procedure involved the following: after 24-48 hour incubation there were calculated the total cell count and the dead cell count by the Trypan blue exclusion method; afterwards the cell suspension was centrifuged (at 12.000 g, in Eppendorf test-tubes during 10 min).
The HL-60 cell culture is human cells of myeloluekosis origin defective in the p53 gene.

[6] = system: CP-treated mice; assay: Cyclophosphamide-induced hemo- and immunodepression, murine model; settings: CP 50 mg/kg; 5 mg/kg intraperitoneally daily for five days; day 8
Source text: The study was designed to evaluate the effect of a five-day long administration of the test articles on the capability of the CP-treated murine splenocytes to produce interleukin-1 (IL-1 α,b); interleukin-2 (IL-2); interleukin-3 (IL-3); interleukin-4 (IL-4); interleukin-6 (IL-6), interleukin-8 (IL-8); interleukin-10 (IL-10); interleukin-12 (IL-12); tumor necrosis factor-α, g (TNF-α, g), interferon-α, g (IFN-α, g) and G-CSF, M-CSF, GM-CSF in vitro. In addition, the blood leukocyte and lymphocyte count and the bone marrow cellularity (karyocyte count) were determined at eight days after CP administration. Some animals receiving CP were then challenged with sheep red blood cells (SRBC), and the humoral immune response to the antigen was evaluated.
Male CBA mice (180 to 200 g body weight) were given a single introperitoneal injection of CP in a dose of 50 mg/kg. Four groups of animals (with no less than 15 mice in each) were formed.
#3—animals receiving a single CP injection, which further were treated with the test article (GSSG dissolved in normal saline) in a dose of 5 mg/kg;
Twenty-four hours after the CP injection, five animals in each group were immunized with SRBC (10^7 cells in 0.5 mL of NS, intra-peritoneally).
Injections were performed during five days: once a day, daily. […]

[7] = system: human peripheral blood mononuclear leukocytes; settings: 0.5-5000 mg/mL, ConA, 24 hours
Protocol: Oxidized glutathione (GSSG) as well as a structural analog thereof, which is a hexapeptide with a stabilized disulfide bond, were evaluated for their effect on cytokine production by human peripheral blood mononuclear leukocytes in vitro.
The leukocytic cytokine production was triggered by adding a mitogen, concanavalin A (ConA) to the cell culture immediately after introducing the test substances. In 24 hours of the cellular exposure to ConA and the test articles, the culture supernatants were sampled and stored until cytokine determination at −70° C. […]
Each concentration was established in no less than six wells by adding 50 mL of medium containing the appropriate quantity of the previously dissolved test articles. […]
Immediately after the test articles had been introduced into the cultures, 50 mL of medium containing ConA (Sigma, cell culture tested) in a quantity required for a final concentration of 4.0 mg/mL, was added to all the wells excepting three additional ones which served for evaluation of spontaneous ^3H-thymidine uptake (without ConA). […]
The filters were dried and their radioactivity (counts per minute, cpm) was determined using liquid scintillation counter, Betaplate 1205 (LKB). […]

[8] = system: stomach cancer; assay: Patient with stomach cancer, peritoneal metastases, ascites, splenomegaly and cholestatic hepatitis
Protocol: A patient was diagnosed as having stomach neoplasm for more than two years (adenocarcinoma of moderate differentiation degree).
A decision was taken to apply GSSG drug form. The drug was injected parenterally (intramuscularly and intravenously), and additionally, the drug form was used via local injections around the tumor tissue through an endoscope. An average doses which were used for intramuscular and intravenous injections—0.1-0.5 mg/kg, and for local injections—up to 50 mg in situ. Parenteral injections of the drug were applied every other day, b.i.d. (intravenous injections at the morning, and intramuscular ones at the evening), during three weeks, and after that, two times a week during four weeks. The drug introduction through the endoscope was performed once in seven days.
The tumor was solid-like type. Stomach walls were rigid. Histology examination defined the tumor as a moderate degree differentiation adenocarcinoma. […] The drug was introduced according to the identical regime: parenterally (intramuscularly and intravenously), and additionally, the drug form was introduced via local injections around the tumor tissue through an endoscope. An average doses which were used for intramuscular and intravenous injections—0.1-0.5 mg/kg, and for local injections—up to 50 mg in situ. Parenteral injections of the drug were applied every other day, b.i.d. (intravenous injections at the morning, and intramuscular ones at the evening), during three weeks, and after that, two times in a week during four weeks. The drug introduction through the endoscope was performed once in seven days.

[9] = patient No. 4, previous treatment during 21 days
[10] = two months after treatment start

Molecule | ALT after the course completion [1, 9] [mmol/h/L] | Hbs Ag degree [1, 9] | bilirubin after the course completion [1, 9] [mmoVL] | liver protrusion beyond the costal arch after the treatment course ([1]; patient No. 3 (GSSG, before 2 cm), patient No. 4 (GSSG.Pt, before 2.5 cm)) [cm] | cytokine and hemopoietic factor production by splenocytes [2] | activity of the enzymes participating in the thiol (glutathione) metabolism [3] | normal cell proliferation [4] | DNA electrophoresis (apoptotic ladder) ([5]; 24 and 48 hours) | high molecular DNA in the apoptotic ladder ([5]; FIG. 14) | dead HL-60 cell quantity ([5]; Trypan blue exclusion) | cytokine and hemopoietic factor production by splenocytes [6] | cytokine production by human mononuclear leukocytes [7] | tumor size decrease ([8]; fibrogastrocopy data) [%] | hematology and blood chemistry indices [8, 10] | liver protrusion below the costal arch [8, 10] [cm] | tumor extent at fibrogastroscopy ([8]; two months after treatment start, before: about 8 cm (GSSG course), about 6 cm (GSSG.Pt course)) [cm]
Nc1nc2c(ncn2COCCO)c(=O)[nH]1 [acyclovir] | 2.1 | did not change | 32 |  |  |  |  |  |  |  |  |  |  |  |  | 
bis-(γ-L-glutamyl)-L-cysteinyl-bis-glycine [GSSG] |  |  |  | 0.5 | less significant effect | increases approximately two times the activity | stimulated the normal cell proliferation | revealed the DNA oligonucleosomic degradation | contained considerable amount of the high molecular DNA | reliably lower than the one after the GSSG.Pt effect | only exiguous stimulating effect | statistically significant and dose-dependent stimulation of the cytokine production | 40 | substantial improvement of hematology and blood chemistry indices | 3 | 4.8
